Data: PubChem BioAssay (NCI)
Where “and” joins values, the source holds several entries; their conditions need not be identical. Identical values can stand only once.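 Results reflect a 48-hour exposure of cells in 96-well plates to compound at five concentrations. GI50 is the concentration that inhibits growth by half. TGI denotes the concentration required for complete inhibition of growth.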 Non-standard residues stand in square brackets, D forms with d. Residues, ends and D or L forms follow the SMILES beside them. ξ: configuration not given here. Pen = CC(C)(S)[C@H](N)C(=O)O; ξL = CC(C)CC(N)C(=O)O

Columns and labels:
Experiment in all cases: NCI tumour cell line growth inhibition, 48 h
XF 498 CNS = system: XF 498 CNS
KM20L2 colon = system: KM20L2 colon
HOP-92 NSCLC = system: HOP-92 NSCLC
UACC-257 melanoma = system: UACC-257 melanoma
HOP-18 NSCLC = system: HOP-18 NSCLC
DMS 114 small cell lung = system: DMS 114 small cell lung
P388/ADR leukemia = system: P388/ADR leukemia
DMS 273 small cell lung = system: DMS 273 small cell lung
NCI-H23 lung = system: NCI-H23 lung
SNB-78 CNS = system: SNB-78 CNS
DLD-1 colon = system: DLD-1 colon
M19-MEL melanoma = system: M19-MEL melanoma
NCI-H226 lung = system: NCI-H226 lung
P388 leukemia = system: P388 leukemia
SN12K1 renal = system: SN12K1 renal
SR leukemia = system: SR leukemia
TK-10 renal = system: TK-10 renal
PC-3 prostate = system: PC-3 prostate
M14 melanoma = system: M14 melanoma
MDA-MB-231 breast = system: MDA-MB-231 breast
DU-145 prostate = system: DU-145 prostate
HS 578T breast = system: HS 578T breast
MDA-MB-435 = system: MDA-MB-435
BT-549 breast = system: BT-549 breast
MDA-N = system: MDA-N
T-47D breast = system: T-47D breast
ACHN renal = system: ACHN renal
A498 renal = system: A498 renal
786-0 renal = system: 786-0 renal
SK-MEL-2 melanoma = system: SK-MEL-2 melanoma
CAKI-1 renal = system: CAKI-1 renal
U251 CNS = system: U251 CNS
RXF 393 renal = system: RXF 393 renal
SF-295 CNS = system: SF-295 CNS
SK-MEL-28 melanoma = system: SK-MEL-28 melanoma
UACC-62 melanoma = system: UACC-62 melanoma
A549 NSCLC = system: A549 NSCLC
KM12 colon = system: KM12 colon
K-562 leukemia = system: K-562 leukemia
SF-539 CNS = system: SF-539 CNS
OVCAR-5 ovarian = system: OVCAR-5 ovarian
SF-268 CNS = system: SF-268 CNS
UO-31 renal = system: UO-31 renal
MALME-3M melanoma = system: MALME-3M melanoma
SNB-75 CNS = system: SNB-75 CNS
HOP-62 NSCLC = system: HOP-62 NSCLC
HCC-2998 colon = system: HCC-2998 colon
COLO 205 colon = system: COLO 205 colon
CCRF-CEM leukemia = system: CCRF-CEM leukemia
OVCAR-4 ovarian = system: OVCAR-4 ovarian
SN12C renal = system: SN12C renal
MCF7 breast = system: MCF7 breast
HT29 colon = system: HT29 colon
OVCAR-3 ovarian = system: OVCAR-3 ovarian
NCI-H522 lung = system: NCI-H522 lung
RPMI-8226 leukemia = system: RPMI-8226 leukemia
SK-OV-3 ovarian = system: SK-OV-3 ovarian
NCI/ADR-RES ovarian = system: NCI/ADR-RES ovarian
SNB-19 CNS = system: SNB-19 CNS
EKVX NSCLC = system: EKVX NSCLC
LOX IMVI melanoma = system: LOX IMVI melanoma
HL-60(TB) leukemia = system: HL-60(TB) leukemia
MOLT-4 leukemia = system: MOLT-4 leukemia
SW-620 colon = system: SW-620 colon
HCT-116 colon = system: HCT-116 colon
OVCAR-8 ovarian = system: OVCAR-8 ovarian
HCT-15 colon = system: HCT-15 colon
SK-MEL-5 melanoma = system: SK-MEL-5 melanoma
IGROV1 ovarian = system: IGROV1 ovarian

Question: What does the source list for `CSCC[C@H](NC(=O)C(CC(C)C)NC(=O)[C@H](Cc1c[nH]cn1)NC(=O)CNC(=O)[C@@H](NC(=O)[C@@H](C)NC(=O)[C@H](Cc1c[nH]c2ccccc12)NC(=O)[C@H](CCC(N)=O)NC(=O)[C@@H](N)CC(N)=O)C(C)(C)SC)C(N)=O` (some centres undefined) (H-NQW[dA][Pen](Me)GH[ξL]M-NH2)?
Answer: TGI (XF 498 CNS): > 100000 nM; TGI (KM20L2 colon): > 100000 nM; TGI (HOP-92 NSCLC): > 100000 nM; TGI (UACC-257 melanoma): > 100000 nM; TGI (HOP-18 NSCLC): > 100000 nM; TGI (DMS 114 small cell lung): > 100000 nM; TGI (P388/ADR leukemia): > 100000 nM; TGI (DMS 273 small cell lung): > 100000 nM; TGI (NCI-H23 lung): > 100000 nM; TGI (SNB-78 CNS): > 100000 nM; TGI (DLD-1 colon): > 100000 nM; TGI (M19-MEL melanoma): > 100000 nM; TGI (NCI-H226 lung): > 100000 nM; TGI (P388 leukemia): > 100000 nM; TGI (SN12K1 renal): > 100000 nM

Question: Which GI50 (SR leukemia) does the source give for `COc1cccc2c1C(=O)c1c(O)c3c(c(O)c1C2=O)C[C@@](O)(C(=O)CO)C[C@@H]3OC1CC(N2CCOCC2)C(O)C(C)O1` (some centres undefined) here?
Answer: 5.53 nM

Question: What about the TGI (TK-10 renal) of the same compound?
Answer: 2070 nM

Question: And the TGI (PC-3 prostate)?
Answer: 241 nM

Question: What about the TGI (M14 melanoma) of the same compound?
Answer: 149 nM

Question: And the TGI (MDA-MB-231 breast)?
Answer: 433 nM

Question: And the TGI (DU-145 prostate)?
Answer: 3370 nM

Question: What about the TGI (HS 578T breast) of the same compound?
Answer: 228 nM

Question: And the TGI (MDA-MB-435)?
Answer: 195 nM

Question: And the TGI (BT-549 breast)?
Answer: 392 nM

Question: What about the GI50 (P388/ADR leukemia) of the same compound?
Answer: 2.5 nM

Question: What about the TGI (MDA-N) of the same compound?
Answer: 175 nM

Question: And the TGI (T-47D breast)?
Answer: 1060 nM

Question: What about the TGI (NCI-H226 lung) of the same compound?
Answer: 8.66 nM and 28.3 nM and 4.55 nM

Question: And the GI50 (ACHN renal)?
Answer: 8.41 nM

Question: And the TGI (ACHN renal)?
Answer: 73.6 nM

Question: And the TGI (A498 renal)?
Answer: 23.2 nM and 48.6 nM and 6.51 nM

Question: And the GI50 (786-0 renal)?
Answer: < 13.1 nM

Question: And the TGI (786-0 renal)?
Answer: 611 nM

Question: Which results are given for `COC1C(OC(=O)/C=C/C=C/C=C/C=C/C(=O)O)CCC2(CO2)C1C1(C)OC1CC=C(C)C` (centres undefined)?
Answer: TGI (SK-MEL-2 melanoma): > 85300 nM; GI50 (SR leukemia): 220 nM; TGI (SR leukemia): 67600 nM; GI50 (CAKI-1 renal): 414 nM; TGI (CAKI-1 renal): > 100000 nM; TGI (TK-10 renal): > 100000 nM; TGI (PC-3 prostate): 73100 nM; GI50 (U251 CNS): 32 nM; GI50 (RXF 393 renal): 265 nM; TGI (M14 melanoma): 69800 nM; TGI (XF 498 CNS): > 100000 nM; GI50 (SF-295 CNS): 193 nM; TGI (SF-295 CNS): > 96800 nM; GI50 (SK-MEL-28 melanoma): 442 nM; TGI (SK-MEL-28 melanoma): > 100000 nM; GI50 (MDA-MB-231 breast): 525 nM; TGI (MDA-MB-231 breast): 80500 nM; GI50 (UACC-62 melanoma): 101 nM; GI50 (A549 NSCLC): 308 nM; TGI (A549 NSCLC): > 100000 nM; GI50 (DU-145 prostate): 651 nM; TGI (DU-145 prostate): > 100000 nM; GI50 (KM12 colon): 471 nM; TGI (KM12 colon): 29400 nM; TGI (K-562 leukemia): > 89600 nM; GI50 (SF-539 CNS): 347 nM; TGI (SF-539 CNS): > 100000 nM; TGI (OVCAR-5 ovarian): > 100000 nM; GI50 (SF-268 CNS): 388 nM; TGI (SF-268 CNS): > 100000 nM; TGI (KM20L2 colon): > 100000 nM; TGI (HS 578T breast): > 100000 nM; TGI (UO-31 renal): > 82200 nM; GI50 (MALME-3M melanoma): 450 nM; TGI (MALME-3M melanoma): > 75300 nM; GI50 (SNB-75 CNS): 287 nM; TGI (SNB-75 CNS): > 86400 nM; GI50 (HOP-62 NSCLC): 198 nM; TGI (HOP-62 NSCLC): > 100000 nM; GI50 (HOP-92 NSCLC): 438 nM; TGI (HOP-92 NSCLC): > 76100 nM; GI50 (HCC-2998 colon): 231 nM; TGI (HCC-2998 colon): > 71400 nM; GI50 (COLO 205 colon): 157 nM; TGI (COLO 205 colon): 26100 nM; GI50 (MDA-MB-435): 105 nM; GI50 (UACC-257 melanoma): 489 nM; TGI (UACC-257 melanoma): > 84200 nM; TGI (HOP-18 NSCLC): 94800 nM; TGI (DMS 114 small cell lung): > 100000 nM; GI50 (CCRF-CEM leukemia): 386 nM; TGI (CCRF-CEM leukemia): 78100 nM; GI50 (OVCAR-4 ovarian): 184 nM; TGI (OVCAR-4 ovarian): > 87000 nM; GI50 (SN12C renal): 225 nM; GI50 (BT-549 breast): 268 nM; TGI (BT-549 breast): > 100000 nM; GI50 (MCF7 breast): 172 nM; TGI (MCF7 breast): > 100000 nM; TGI (P388/ADR leukemia): > 49200 nM; GI50 (HT29 colon): 181 nM; TGI (DMS 273 small cell lung): > 100000 nM; GI50 (OVCAR-3 ovarian): 314 nM; TGI (OVCAR-3 ovarian): > 80900 nM; GI50 (MDA-N): 246 nM; TGI (MDA-N): > 100000 nM; GI50 (NCI-H522 lung): 137 nM; GI50 (RPMI-8226 leukemia): 165 nM; TGI (RPMI-8226 leukemia): 78600 nM; TGI (SK-OV-3 ovarian): > 84500 nM; GI50 (NCI-H23 lung): 193 nM; TGI (NCI-H23 lung): > 83700 nM; GI50 (T-47D breast): 326 nM; TGI (T-47D breast): 70200 nM; TGI (NCI/ADR-RES ovarian): 97700 nM; GI50 (SNB-19 CNS): 277 nM; TGI (SNB-19 CNS): > 100000 nM; GI50 (EKVX NSCLC): 436 nM; TGI (EKVX NSCLC): > 82900 nM; GI50 (LOX IMVI melanoma): 183 nM; GI50 (HL-60(TB) leukemia): 187 nM; TGI (HL-60(TB) leukemia): 70600 nM; GI50 (MOLT-4 leukemia): 347 nM; TGI (MOLT-4 leukemia): 78700 nM; TGI (SNB-78 CNS): > 100000 nM; TGI (DLD-1 colon): > 100000 nM; TGI (M19-MEL melanoma): > 100000 nM; GI50 (SW-620 colon): 272 nM; TGI (SW-620 colon): > 100000 nM; TGI (NCI-H226 lung): > 100000 nM; GI50 (ACHN renal): 373 nM; TGI (ACHN renal): 49000 nM; TGI (P388 leukemia): 29100 nM; GI50 (HCT-116 colon): 120 nM; TGI (HCT-116 colon): > 100000 nM; GI50 (OVCAR-8 ovarian): 301 nM; TGI (OVCAR-8 ovarian): > 92000 nM; TGI (A498 renal): > 100000 nM; GI50 (HCT-15 colon): 296 nM; TGI (HCT-15 colon): > 93900 nM; GI50 (786-0 renal): 310 nM; TGI (786-0 renal): > 100000 nM; GI50 (SK-MEL-5 melanoma): 271 nM; TGI (SK-MEL-5 melanoma): > 64900 nM; TGI (IGROV1 ovarian): > 95100 nM; TGI (SN12K1 renal): > 100000 nM
